# ChEMBL document CHEMBL5726485, “Polycyclic pyridone derivative having integrase inhibitory activity” (2019)
# Assay: Anti-HIV Activity: Previously, a series of two-fold dilution on test samples were carried out in a 96-well plate (50 μL/well). Two plates were made for measuring anti-HIV activity and measuring cytotoxicity. For each agent, measurement in duplicate was carried out. An MT-4 cell suspension of 2.5×10^5/mL was dispensed at 100 μL/well onto the 96-well plate containing the test samples. An HIV virus solution was dispensed at 50 μL/well onto the 96-well plate containing the test samples and the cell. To the plate for measuring cytotoxicity, a culture solution was dispensed at 50 μL/well. It was mixed by a plate mixer, and then incubated in a CO2 incubator for 4 days. […] Thirty microliters of a MTT (3-(4,5-dimethylthiazol-2-yl)-2,5-diphenyltetrazolium bromide) solution was dispensed to each well.A reaction was allowed to occur in a CO2 incubator for an hour. From each well, 150 μL of the supernatant was removed such that cells are not sucked. One-hundred and fifty microliters of a cell lysis solution was added thereto, and then it was mixed well by a plate mixer until the whole cells are lysed. The mixed 96-well plates were measured by a microplate reader at two wavelengths, 560 nm/690 nm. Based on the following calculation formula, 50% HIV inhibition concentration (EC50) was calculated.
# Conditions: MT4
row,Structure (SMILES),EC50 [nM]
1,O=C1c2c(O)c(=O)c(-c3nnc(Cc4ccc(F)cc4F)s3)cn2C[C@H]2O[C@@H]3CCC[C@@H]3N12,1.6
2,C[C@H]1CCO[C@@H]2Cn3cc(-c4nnc(Cc5ccc(F)c(Cl)c5F)s4)c(=O)c(O)c3C(=O)N12,2.3
3,C[C@@H]1CCC2C(=O)c3c(O)c(=O)c(-c4ncc(Cc5ccc(F)cc5F)s4)cn3C[C@@H]2O1 (stereo partly specified),7.4
4,C[C@H]1CCO[C@@H]2Cn3cc(-c4nnc(Cc5ccc(F)cc5F)s4)c(=O)c(O)c3C(=O)N12,2.1
5,COCCN1CN(CC(C)C)n2cc(C(=O)NNC(=S)Cc3ccc(F)cc3F)c(=O)c(O)c2C1=O,3.4
6,C[C@H]1CCO[C@@H]2Cn3cc(-c4nnc(Cc5c(F)cc(F)cc5F)s4)c(=O)c(O)c3C(=O)N12,1.4
7,C[C@H]1CCN(C2CC2)[C@@H]2Cn3cc(-c4nnc(Cc5ccc(F)cc5F)s4)c(=O)c(OCc4ccccc4)c3C(=O)N12,3
8,C[C@@H]1C[C@@H](C)N2C(=O)c3c(O)c(=O)c(-c4nnc(Cc5cccc(Cl)c5F)s4)cn3C[C@@H]2O1,2.8
9,O=C1c2c(O)c(=O)c(-c3ncc(Cc4ccc(F)cc4F)s3)cn2C[C@@H]2CCCCN12,11
10,C[C@@H]1C[C@@H](C)N2C(=O)c3c(O)c(=O)c(-c4nnc(Cc5ccc(F)cc5F)s4)cn3C[C@@H]2O1,2.7
11,CCN1CN(CCOC)C(=O)c2c(O)c(=O)c(-c3ncc(Cc4cccc(Cl)c4F)s3)cn21,8.7
